According to ChEMBL document CHEMBL1156001, “Synthesis and in vitro DMPK profiling of a 1,2-dioxolane-based library with activity against Plasmodium falciparum” (Bioorg Med Chem Lett, 2009):

Key:
[1] = Octanol-PBS partition coefficient, log D at […] at pH 7.4; format: physicochemical
[2] = Membrane permeability at […] at pH 6.5 to 7.4 after 4 hrs by PAMPA; format: ADME; conditions: read-out: permeability
[3] = Intrinsic clearance in rat liver microsomes after 10 to 45 mins by LCMS/MS analysis; format: ADME, Microsome
[4] = Intrinsic clearance in human liver microsomes after 10 to 45 mins by LCMS/MS analysis; format: ADME, Microsome

| Structure (SMILES) | logD [1] | Papp at 4 h [2] [×10⁻⁶ cm/s] | microsomal CLint [3] [µL/min/mg] | microsomal CLint [4] [µL/min/mg] |
| --- | --- | --- | --- | --- |
| CC1(CC(=O)NCc2ccccc2N)CC2(CCCCC2)OO1 (stereo not given) | 2.5 | 37 | – | – |
| CC1(CC(=O)NCc2ccc([N+](=O)[O-])cc2)CC2(CCCCC2)OO1 (stereo not given) | 3.4 | 49 | – | – |
| CC1(CC(=O)NCc2ccc(S(N)(=O)=O)cc2)CC2(CCCCC2)OO1 (stereo not given) | 1.4 | – | – | – |
| CC1(CC(=O)NCc2cccc(I)c2)CC2(CCCCC2)OO1 (stereo not given) | 3.5 | – | – | – |
| COc1cccc(CNC(=O)CC2(C)CC3(CCCCC3)OO2)c1 (stereo not given) | 3.1 | 65 | – | – |
| COc1cc(CNC(=O)CC2(C)CC3(CCCCC3)OO2)cc(OC)c1OC (stereo not given) | 2.3 | 54 | – | – |
| CC1(CC(=O)NCc2ccccc2OC(F)(F)F)CC2(CCCCC2)OO1 (stereo not given) | 3.3 | – | – | – |
| CC1(CC(=O)NCc2ccc(C(C)(C)C)cc2)CC2(CCCCC2)OO1 (stereo not given) | 3.5 | – | – | – |
| CC1(CC(=O)NCc2ccc(-c3cc(Cl)cc(Cl)c3)cc2)CC2(CCCCC2)OO1 (stereo not given) | > 3.5 | – | – | – |
| CC1(CC(=O)NCc2ccc(Br)cc2F)CC2(CCCCC2)OO1 (stereo not given) | 4.1 | – | – | – |
| CN(C)c1ccc(CNC(=O)CC2(C)CC3(CCCCC3)OO2)cc1 (stereo not given) | 3.1 | 90 | – | – |
| CC1(CC(=O)NCc2ccc(-c3cccs3)cc2)CC2(CCCCC2)OO1 (stereo not given) | 3.7 | – | – | – |
| CC1(CC(=O)NCc2ccc(N3CCOCC3)cc2)CC2(CCCCC2)OO1 (stereo not given) | 2.7 | – | – | – |
| CC1(CC(=O)NCc2ccc(-c3ccc(F)cc3)cc2)CC2(CCCCC2)OO1 (stereo not given) | 4.8 | – | – | – |
| CC(C)(C)OC(=O)Nc1cccc(CCNC(=O)CC2(C)CC3(CCCCC3)OO2)c1 (stereo not given) | 3 | – | – | – |
| COc1cc(CNC(=O)CC2(C)CC3(CCCCC3)OO2)cc(OC)c1 (stereo not given) | 3.3 | 55 | – | – |
| CC1(CC(=O)NCc2ccc3c(c2)OCCO3)CC2(CCCCC2)OO1 (stereo not given) | 2.7 | 56 | – | – |
| CC1(CC(=O)NCc2ccc(OC(F)F)cc2)CC2(CCCCC2)OO1 (stereo not given) | 3.1 | – | – | – |
| CC1(CC(=O)NCc2ccc(Cl)cc2Cl)CC2(CCCCC2)OO1 (stereo not given) | > 3.5 | – | – | – |
| Cc1cc(Cl)ccc1CNC(=O)CC1(C)CC2(CCCCC2)OO1 (stereo not given) | 4.2 | – | – | – |
| CC1(CC(=O)NCc2ccc(OC(F)(F)F)cc2)CC2(CCCCC2)OO1 (stereo not given) | 3.2 | – | – | – |

| Structure (SMILES) | logD [1] | Papp at 4 h [2] [×10⁻⁶ cm/s] | microsomal CLint [3] [µL/min/mg] | microsomal CLint [4] [µL/min/mg] |
| --- | --- | --- | --- | --- |
| CC1(CC(=O)NCc2ccc(Oc3cc(C(F)(F)F)cc(C(F)(F)F)c3)cc2)CC2(CCCCC2)OO1 (stereo not given) | 3.2 | – | – | – |
| CC1(CC(=O)NCc2ccc(C(=O)O)cc2)CC2(CCCCC2)OO1 (stereo not given) | 0.3 | – | – | – |
| CC1(CC(=O)NCc2ccc(-n3cccc3)cc2)CC2(CCCCC2)OO1 (stereo not given) | 4.3 | 70 | – | – |
| CC1(CC(=O)NCc2cccc(Br)c2)CC2(CCCCC2)OO1 (stereo not given) | 3.3 | – | – | – |
| CC1(CC(=O)NCc2cccc(-c3ccccc3)c2)CC2(CCCCC2)OO1 (stereo not given) | 3.8 | – | – | – |
| CC1(CC(=O)NCCNc2ccnc3cc(Cl)ccc23)CC2(CCCCC2)OO1 (stereo not given) | 3.4 | 66 | > 119 | > 72 |
| CCOc1ccccc1CNC(=O)CC1(C)CC2(CCCCC2)OO1 (stereo not given) | 3.1 | 74 | – | – |
| CC1(CC(=O)NCc2ccccc2N2CCCCC2)CC2(CCCCC2)OO1 (stereo not given) | > 3.5 | 62 | – | – |
| COC(=O)c1ccc(CNC(=O)CC2(C)CC3(CCCCC3)OO2)cc1 (stereo not given) | 3.4 | 57 | – | – |
| CC1(CC(=O)NCc2ccc3c(c2)OCC3)CC2(CCCCC2)OO1 (stereo not given) | 2.8 | – | – | – |
| CC1(CC(=O)NCc2cccc(C(F)(F)F)c2)CC2(CCCCC2)OO1 (stereo not given) | 4 | – | – | – |
| CC1(CC(=O)NCc2ccccc2Sc2ccccc2CO)CC2(CCCCC2)OO1 (stereo not given) | 4.3 | 77 | – | – |
| CC1(CC(=O)NCc2cccc(Cl)c2)CC2(CCCCC2)OO1 (stereo not given) | 3.7 | – | – | – |
| CC1(CC(=O)NCc2cccc(Oc3ccc(Cl)cc3)c2)CC2(CCCCC2)OO1 (stereo not given) | 3.2 | – | – | – |
| CC1(CC(=O)NCc2cccc(Cl)c2Cl)CC2(CCCCC2)OO1 (stereo not given) | 3.4 | – | – | – |
| CC1(CC(=O)NCc2ccncc2)CC2(CCCCC2)OO1 (stereo not given) | 2.1 | 18 | – | – |
| CSc1ccc(CNC(=O)CC2(C)CC3(CCCCC3)OO2)cc1 (stereo not given) | 3.7 | 97 | – | – |
| CC1(CC(=O)NCc2ccc(Oc3ccc(F)cc3)cc2)CC2(CCCCC2)OO1 (stereo not given) | > 3.5 | – | – | – |
| CC1(CC(=O)NCc2ccc3c(c2)OCC=CO3)CC2(CCCCC2)OO1 (stereo not given) | 3.1 | 55 | – | – |
| CC1(CC(=O)NCc2ccccn2)CC2(CCCCC2)OO1 (stereo not given) | 2.3 | 33 | – | – |
